Test results as given in patent US8137977B2, “Lipidomic approaches to determining drug response phenotypes in cardiovascular disease” (Children's Hospital & Research Center at Oakland, priority 2007, dated 2012).

Test: Lipid profile changes (lipid classes and fatty acid composition) following simvastatin treatment, high vs low responders, PARC study
Assay type: in vivo, human
Details: 40 mg, 6 weeks vs baseline, high minus low, ANOVA
Protocol: We evaluated lipid profiles of 48 subjects selected from the Pharmacogenetics and Risk of Cardiovascular Disease (PARC) study. Subjects were selected from the larger study population of 944 participants (335 African-Americans and 609 whites), with a baseline total serum cholesterol level of 160 to 400 mg/dl. Participants were followed for a total of 6 weeks on simvastatin therapy (40 mg at bedtime). Twenty-four subjects drawn from the top 10% of responders and 24 age-, gender-, and race-matched subjects from the bottom 10% of responders. Response was defined as percent change in LDL cholesterol from baseline to end of treatment. Samples used in this study were collected at baseline and at 6 weeks of therapy.
Data Reporting. Lipids measured included, butyrobetaine, L-carnitine, cholesterol, cholesterol esters (CE), diglycerides (DG), free cholesterol (FC), free fatty acids (FA), lysophosphatidylcholine (LY), phosphatidylcholine (PC), phosphatidylethanolamine (PE) and triglycerides (TG). For CE, DG, FA, LY, PC, PE and TG lipid classes the following fatty acid components were quantified as a proportion of total fatty acids within the lipid class: 14:0, 15:0, 16:0, 18:0, 20:0, 22:0, 24:0, 14:1n5, 16:1n7, 18:1n7, 18:1n9, 20:1n9, 20:3n9, 22:1n9, 24:1n9, 18:2n6, 18:3n6, 20:2n6, 20:3n6, 20:4n6, 22:2n6, 22:4n6, 22:5n6, 18:3n3, 18:4n3, 20:3n3, 20:4n3, 20:5n3, 22:5n3, 22:6n3, 24:6n3, plasmalogen derivatives of 16:0, 18:0, 18:1n7 and 18:1n9, t16:1n7 t18:1n9 t18:2n6. The term “LC” indicates the value shown is the total concentration of the lipid class expressed as nMoles per gram of serum or plasma. Thus, the abbreviation PC18:2n6 indicates the percentage of plasma or serum phosphatidylcholine comprised of linoleic acid (18:2n6), and the term TGLC indicates the absolute amount of triglyceride present in plasma or serum.
Statistical Methods. Before undertaking analysis, the data was cleaned by outlier removal and removal of uninformative metabolites. Outliers were identifies as those observation more than three standard deviations from the mean. Metabolites were determined to be uninformative if over ⅔rds of the observations were below the limit of detection and the pattern of observations falling below this limit was not related to the outcome.
Results of t-tests were used in order to reduce the number of metabolites being modeled.
A simple one-way ANOVA was used to evaluate the difference in lipid changes between high and low responders. From this analysis, contrasts were calculated for the comparison of low to high responders. In addition, an ANCOVA model was used to evaluate the difference in response adjusting for baseline concentrations of the metabolite and the time the samples were run. The outcome was change from baseline to post-treatment, baseline concentration was the covariate, response (high=1, low=0) and group (first=0, second=1) were included as factors, and an interaction term between baseline and response was included.
The column labeled “estimate” is the difference between the change from pre to post in high and low responders (high minus low). The standard error, t-statistic, p-value, and 95% confidence bounds of this estimate are also included (Lower.CI and Upper.CI).

[1] = proportion of fatty acids in lysophosphatidylcholine
[2] = proportion of fatty acids in phosphatidylcholine
[3] = proportion of fatty acids in phosphatidylethanolamine
[4] = proportion of fatty acids in triglyceride

Structure (SMILES): CCC(C)(C)C(=O)O[C@H]1C[C@@H](C)C=C2C=C[C@H](C)[C@H](CC[C@@H]3C[C@@H](O)CC(=O)O3)[C@H]21 [simvastatin]
- Estimate, difference between change in high and low responders: DGLC (total diglyceride): 2.4502 nMoles per gram of serum or plasma
- Estimate, difference between change in high and low responders: LY14.1n5 [1]: 0.0135 percentage
- Estimate, difference between change in high and low responders: LY16.0 [1]: −1.1505 percentage
- Estimate, difference between change in high and low responders: LY18.0 [1]: −1.1443 percentage
- Estimate, difference between change in high and low responders: LY18.1n9 [1]: 0.3099 percentage
- Estimate, difference between change in high and low responders: LY18.3n6 [1]: 0.0774 percentage
- Estimate, difference between change in high and low responders: LY20.4n3 [1]: −0.019 percentage
- Estimate, difference between change in high and low responders: LY20.4n6 [1]: 0.1269 percentage
- Estimate, difference between change in high and low responders: LY20.5n3 [1]: 0.0994 percentage
- Estimate, difference between change in high and low responders: PC18.2n6 [2]: −1.5254 percentage
- Estimate, difference between change in high and low responders: PC18.3n3 [2]: −0.0498 percentage
- Estimate, difference between change in high and low responders: PC20.3n9 [2]: −0.0509 percentage
- Estimate, difference between change in high and low responders: PC20.4n6 [2]: 1.1779 percentage
- Estimate, difference between change in high and low responders: PC22.6n3 [2]: 0.4153 percentage
- Estimate, difference between change in high and low responders: PE14.1n5 [3]: 0.0551 percentage
- Estimate, difference between change in high and low responders: PE18.0 [3]: −2.0267 percentage
- Estimate, difference between change in high and low responders: PE18.2n6 [3]: −1.036 percentage
- Estimate, difference between change in high and low responders: PE20.0 [3]: 0.0189 percentage
- Estimate, difference between change in high and low responders: PE20.3n6 [3]: −0.4196 percentage
- Estimate, difference between change in high and low responders: PE20.4n3 [3]: −0.0102 percentage
- Estimate, difference between change in high and low responders: PE22.5n3 [3]: −0.1266 percentage
- Estimate, difference between change in high and low responders: TG18.3n3 [4]: −0.0787 percentage
- Estimate, difference between change in high and low responders: TG18.3n6 [4]: 0.1008 percentage
- Estimate, difference between change in high and low responders: TG18.4n3 [4]: 0.0378 percentage
- Estimate, difference between change in high and low responders: TG20.3n9 [4]: −0.0052 percentage
- Estimate, difference between change in high and low responders: TG20.4n3 [4]: −0.0056 percentage
- Estimate, difference between change in high and low responders: TG20.4n6 [4]: 0.1005 percentage
- Estimate, difference between change in high and low responders: TG22.0 [4]: 0.0184 percentage
- Estimate, difference between change in high and low responders: TG22.4n6 [4]: −0.0138 percentage
- Estimate, difference between change in high and low responders: TG22.5n6 [4]: −0.0165 percentage
- Estimate, difference between change in high and low responders: FA20.0 (proportion of free fatty acids): 0.0159 percentage
- Estimate, difference between change in high and low responders: FA20.1n9 (proportion of free fatty acids): 0.0823 percentage
- Estimate, difference between change in high and low responders: FA22.1n9 (proportion of free fatty acids): −0.0615 percentage
- Estimate, difference between change in high and low responders: FA22.2n6 (proportion of free fatty acids): −0.0088 percentage
